Columns and labels:
Assay type in all cases: biochemical
[1] = biological target: T1, human granzyme A (Homo sapiens, UniProt P12544); experiment: Inactivation rate of human granzyme A, incubation method; details: Table I; 0.1M Hepes, 0.01M CaCl2 pH 7.5, 25° C., 7.6% DMSO, substrate Z--Arg--SBzl
T1 sequence (P12544 29-262): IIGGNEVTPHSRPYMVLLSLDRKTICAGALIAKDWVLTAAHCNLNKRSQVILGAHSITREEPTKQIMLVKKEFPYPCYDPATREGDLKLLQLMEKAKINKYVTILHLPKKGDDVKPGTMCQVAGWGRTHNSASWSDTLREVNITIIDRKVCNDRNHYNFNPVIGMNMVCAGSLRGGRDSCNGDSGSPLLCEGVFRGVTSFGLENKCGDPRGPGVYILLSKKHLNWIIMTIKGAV
Experimental: (§1) Inactivation rates of serine proteases by aryl diesters of peptidyl derivatives of α-aminoalkylphosphonates were measured by the incubation method. An aliquot of inhibitor (25 or 50 μl) in Me2 SO was added to a buffered enzyme solution (0.01-2.3 μM) to initiate the inactivation. Aliquots (50 μl) were withdrawn at various intervals and the residual enzymatic activity was measured. Me2 SO concentration in the reaction mixture was 8-12% (v/v). A 0.1 M HEPES, 0.01 M CaCl2, pH 7.5 buffer was utilized for trypsin and trypsin-like enzymes. A 0.1 M HEPES, 0.5 M NaCl, pH 7.5, was utilized for the other serine proteases. Peptide thioesters or peptide nitroanilides with the appropriate sequences were used as substrates for various serine proteases. All peptide thioesters hydrolysis rates were measured with the assay mixture containing 4,4'-dithiodipyridine {ε324 =19800 M^-1 cm^-1; Grasetti & Murray, Arch. Biochem. Biophys. 1967, 119, 41-48}. Peptide 4-nitroanilide hydrolysis was measured at 410 nm {ε410 =8800 M^-1 cm^-1; Erlanger et al., Arch. Biochem. Biophys. 1961, 95, 271-278}. First order inactivation rate constants (Kobs) were obtained from plots of In vt /vo vs time, and the correlation coefficients were greater then 0.98.
(§2) ^a Inhibition constants were measured in 0.1M Hepes, 0.01M CaCl2
(§3) pH 7.5 for trypsin, granzymes A, and K, and in 0.1M Hepes, 10% glycerol,
(§4) 10 mM heparin, pH 7.5 for mast cell tryptase, and at 25° C. The
(§5) reaction mixtures contained 2% DMSO for trypsin, 7.6% for granzyme A, and
(§6) 7.1% for granzyme K and tryptase. The substrate was Z--Arg--SBzl for
(§7) granzymes and trypsin, and Z--Arg--SBzl or Z--Lys--SBzl for tryptase in
(§8) the presence of DTNB. The inhibitor # concentration ranged from 0.001 to
(§9) ^b NI, no inhibition after 25 min of incubation with enzyme.

[2] = biological target: T2, rat granzyme K (Rattus norvegicus, UniProt P49864); experiment: Inactivation rate of rat granzyme K, incubation method; details: Table I; 0.1M Hepes, 0.01M CaCl2 pH 7.5, 25° C., 7.1% DMSO, substrate Z--Arg--SBzl; NI = no inhibition after 25 min of incubation
T2 sequence (P49864 26-258): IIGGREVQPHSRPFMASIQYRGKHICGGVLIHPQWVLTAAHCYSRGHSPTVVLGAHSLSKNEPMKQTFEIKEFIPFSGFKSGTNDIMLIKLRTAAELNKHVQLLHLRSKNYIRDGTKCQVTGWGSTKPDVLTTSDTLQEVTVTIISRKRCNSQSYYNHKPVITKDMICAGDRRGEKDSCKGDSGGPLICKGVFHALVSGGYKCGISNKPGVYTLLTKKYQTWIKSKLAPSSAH
Experimental: as §1, §2, §3, §4, §5, §6, §7, §8, §9

[3] = biological target: T3, human thrombin (Homo sapiens, UniProt P00734); details: Table II; for kobs /[I] human thrombin: 0.07 μM thrombin, 0.25-42 μM inhibitor, 80 mM Hepes pH 7.5, 428 mM NaCl, 8% DMSO, 25° C., NI = no inhibition
T3 construct: bovine trypsin, human thrombin
Experimental: as §1, with “271-278}.” for “271-278}. First order inactivation rate constants (Kobs) were obtained from plots of In vt /vo vs time, and the correlation coefficients were greater then 0.98.”
(§10) ^a Enzyme was incubated with the inhibitor in 250 μL of the proper
(§11) buffer at 25° C. Specifically, the inhibition reation mixtures wer
(§12) Hepes, pH 7.5 buffer containing 1 mM CaCl2 and 8% DMSO; 0.07 μM
thrombin, 0.25-42 μM inhibitor in an 80 mM Hepes, pH 7.5 buffer
(§13) containing 428 mM NaCl and 8% DMSO; 0.07 μM tryptase, 20-66 μM
(§14) DMSO. Aliquots of 25 μL were withdrawn at various intervals and the
(§15) residual enzymatic activity was measured as described in experimental
(§16) section. The kobs values were calculated from pseudofirst-order
(§17) ^a Enzyme (0.06-0.5 μM) was incubated with the inhibitor (0.25-42
(§18) μM) in 250 μL of the proper buffer containing 9% DMSO at 25°
(§19) C. The final inhibition reaction mixtures are given in the footnote to
(§20) Table 1. Aliquots of 25 μL were withdrawn at various intervals and the […]

[4] = biological target: T4, bovine trypsin (Bos taurus, UniProt P00760); experiment: Inactivation rate of bovine trypsin, incubation method; details: for kobsd /[I] bovine trypsin: Table I, 0.1M Hepes, 0.01M CaCl2 pH 7.5, 25° C., 2% DMSO, substrate Z--Arg--SBzl, NI = no inhibition after 25 min; for kobs /[I] bovine trypsin: Table II, 0.13 μM trypsin, 0.25-42 μM inhibitor, 80 mM Hepes pH 7.5, 1 mM CaCl2, 8% DMSO, 25° C., NI = no inhibition
T4 sequence (P00760 24-246): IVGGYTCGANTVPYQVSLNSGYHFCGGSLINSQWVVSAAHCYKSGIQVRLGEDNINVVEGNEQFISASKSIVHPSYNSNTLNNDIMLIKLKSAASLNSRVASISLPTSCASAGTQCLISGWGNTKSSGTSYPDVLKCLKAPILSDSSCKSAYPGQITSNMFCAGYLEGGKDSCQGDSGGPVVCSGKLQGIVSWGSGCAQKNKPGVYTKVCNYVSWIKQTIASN
Experimental: as §1, §2, §3, §4, §5, §6, §7, §8, §9, §10, §11
composed of: 0.13 μM trypsin, 0.25-42 μM inhibitor in an 80 mM
as §12, §14, §15, §16, §17, §18, §19, §20

[5] = biological target: mast cell tryptase (Homo sapiens, UniProt Q15661); experiment: Inactivation rate of mast cell tryptase, incubation method; details: for kobsd /[I] mast cell tryptase: 0.1M Hepes, 10% glycerol, 10 mM heparin, pH 7.5, 25° C., 7.1% DMSO, NI = no inhibition after 25 min of incubation; for kobs /[I] mast cell tryptase: 0.07 μM tryptase, 20-66 μM inhibitor, Hepes pH 7.5, heparin, 9% glycerol, 8% DMSO, 25° C., NI = no inhibition
mast cell tryptase, sequence (Q15661 31-275): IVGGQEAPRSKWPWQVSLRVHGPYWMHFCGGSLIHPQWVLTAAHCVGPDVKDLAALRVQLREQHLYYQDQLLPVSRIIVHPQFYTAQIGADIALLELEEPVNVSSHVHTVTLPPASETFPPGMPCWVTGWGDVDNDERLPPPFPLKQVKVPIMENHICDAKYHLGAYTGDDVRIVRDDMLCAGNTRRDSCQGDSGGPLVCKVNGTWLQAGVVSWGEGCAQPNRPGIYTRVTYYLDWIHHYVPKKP
Experimental: as §1, §2, §3, §4, §5, §6, §7, §8, §9, §10, §13
inhibitor # in an mM Hepes, pH 7.5 buffer containing 8 mM heparin, 166 m
NaCl, 0.8 mM Mes, 9% glycerol and 8% DMSO; 0.42 μM factor Xa, 66 μM
as §14, §15, §16, §17, §18, §19, §20

| SMILES | kobsd /[I] human granzyme A [1] [M⁻¹ s⁻¹] | kobsd /[I] rat granzyme K [2] [M⁻¹ s⁻¹] | kobs /[I] human thrombin [3] | kobsd /[I] bovine trypsin [4] [M⁻¹ s⁻¹] | kobs /[I] bovine trypsin [4] | kobsd /[I] mast cell tryptase ([5]; Table I) [M⁻¹ s⁻¹] | kobs /[I] mast cell tryptase ([5]; Table II) [M⁻¹ s⁻¹] | % Inh mast cell tryptase ([5]; Table I, printed in the kobsd/[I] column) [%] | % Inh mast cell tryptase ([5]; Table II, printed in the kobs/[I] column) [%] | % Inh human thrombin ([3]; printed in the kobs/[I] column) [%] |
| --- | --- | --- | --- | --- | --- | --- | --- | --- | --- | --- |
| N=C(N)c1ccc(C(NC(=O)C2CCCN2C(=O)CCc2ccccc2)P(=O)(Oc2ccccc2)Oc2ccccc2)cc1 (stereo not drawn) [3-Phenylpropanoyl-Pro-(4-AmPhGly)^P (OPh)2] | 1510 ± 217 | 50 ± 2 | 6,070 ± 68 M^-1 s^-1 | 1520 ± 27 | 1,520 ± 27 M^-1 s^-1 | 0.4 | 0.4 |  |  |  |
| C[C@H](NC(=O)[C@@H]1CCCN1C(=O)OCc1ccccc1)C(=O)NC(c1ccc(C(=N)N)cc1)P(=O)(Oc1ccccc1)Oc1ccccc1 (stereo partly drawn) [Cbz--Pro--Ala-(4-AmPhGly)^P (OPh)2] | 380 ± 18 | 5 | 70 ± 2 M⁻¹ s⁻¹ | 240 ± 10 | 240 ± 10 M⁻¹ s⁻¹ | 1 | 1 ± 0 |  |  |  |
| C[C@@H](O)[C@H](NC(=O)OCc1ccccc1)C(=O)NC(c1ccc(C(=N)N)cc1)P(=O)(Oc1ccccc1)Oc1ccccc1 (stereo partly drawn) [Cbz--Thr-(4-AmPhGly)^P (OPh)2] | 2220 ± 40 | 3 | 61 ± 3 M⁻¹ s⁻¹ | 97 | 97 ± 2 M⁻¹ s⁻¹ |  |  |  |  |  |
| Cl.N=C(N)c1ccc(C(NC(=O)[C@@H]2CCCN2C(=O)c2cccc(Oc3ccccc3)c2)P(=O)(Oc2ccccc2)Oc2ccccc2)cc1 (stereo partly drawn) [Diphenyl N-(N-(3-Phenoxybenzoylprolyl))amino(4-amidinophenyl)methanephosphonate Hydrochloride] | 330 ± 58 |  | 1,340 ± 225 M^-1 s^-1 | 4080 ± 32 | 4,080 ± 32 M^-1 s^-1 |  |  | 7 | 7 |  |
| N=C(N)c1ccc(C(NC(=O)[C@@H]2CCCN2C(=O)CC(c2ccccc2)c2ccccc2)P(=O)(Oc2ccccc2)Oc2ccccc2)cc1 (stereo partly drawn) [3,3-Diphenylpropanoyl-Pro-(4-AmPhGly)^P (OPh)2] | 250 ± 8 | 1830 ± 140 | 80,300 ± 368 M^-1 s^-1 | 2660 ± 40 | 2,660 ± 40 M^-1 s^-1 |  |  |  |  |  |
| CC(NC(=O)C(CCCCNC(=O)OC(C)(C)C)NC(=O)OCc1ccccc1)C(=O)NC(c1ccc(C(=N)N)cc1)P(=O)(Oc1ccccc1)Oc1ccccc1 (mixture of isomers) [Cbz--Lyz(Boc)--Ala-(4-AmPhGly)^P (OPh)2] | 110 ± 5 |  | 450 ± 58 M⁻¹ s⁻¹ | 3100 ± 177 | 3,100 ± 177 M^-1 s^-1 | 8.5 ± 0.4 | 8.7 ± 0.4 |  |  |  |
| C[C@H](NC(=O)[C@H](CC(=O)OC(C)(C)C)NC(=O)OCc1ccccc1)C(=O)NC(c1ccc(C(=N)N)cc1)P(=O)(Oc1ccccc1)Oc1ccccc1 (stereo partly drawn) [Cbz--Asp(O-t-Bu)--Ala-(4-AmPhGly)^P (OPh)2] | 280 ± 5 |  | 480 ± 93 M⁻¹ s⁻¹ | 2000 ± 24 | 2,000 ± 24 M^-1 s^-1 | 3 | 3 ± 0 |  |  |  |
| CC(C)CC(NC(=O)OCc1ccccc1)C(=O)NC(c1ccc(C(=N)N)cc1)P(=O)(Oc1ccccc1)Oc1ccccc1 (mixture of isomers) [Cbz--Leu-(4-AmPhGly)^P (OPh)2] | 6.3 ± 0.7 |  |  | 50 ± 1 | 1.3 ± 0.1 M⁻¹ s⁻¹ | 0.3 | 0.3 |  |  | 19 |

From US5952307A, “Basic α-aminoalkylphosphonate derivatives” (priority 1997, dated 1999)
